Converted amounts (≈) assume the structure as drawn. Structures can show the parent of a compound that is named as a salt.
Assays:
[1] = tested on: 17 highly resistant MRSA strains; experiment: In vitro activity: minimum inhibitory concentration (MIC) by the agar dilution method in Mueller Hinton agar, 17 highly resistant MRSA strains; format: cell-based, Methicillin resistant Staphylococcus aureus (MRSA); conditions: inoculum =10^5 CFU/spot
Description: In vitro activity was determined by minimum inhibitory concentration (MIC) by the agar dilution method in Mueller Hinton agar inoculum =10^5 CFU/spot.

β-lactamase = conditions: in words; cited from earlier work
MRSA = conditions: alone; in words; cited from earlier work
[2] = tested on: Gram-positive and Gram negative pathogens; conditions: carbapenems alone; in words; cited from earlier work

| MIC50 ([1]; Table 1, substance alone) [µg/mL] | MIC90 ([1]; Table 1, substance alone) [µg/mL] | range of MIC ([1]; Table 1, substance alone) [µg/mL] | MIC50 ([1]; Table 2, substance alone) [µg/mL] | MIC90 ([1]; Table 2, substance alone) [µg/mL] | Structure (SMILES) | β-lactamase inhibition (β-lactamase) | activity against MRSA (MRSA) | spectrum of antibacterial activity [2] | range of MIC ([1]; Table 2, substance alone) [µg/mL] |
| --- | --- | --- | --- | --- | --- | --- | --- | --- | --- |
| > 64 | > 64 | > 64 | – | – | CN(C)CCn1nnnc1SCC1=C(C(=O)O)N2C(=O)[C@@H](NC(=O)Cc3csc(N)n3)[C@H]2SC1 [Cefotiam, reference compound] | – | – | – | – |
| 16 (≈ 24.4 µM) | > 16 | – | 16 (≈ 24.4 µM) | > 16 | O=C(CSc1cc(Cl)c(Cl)cc1Cl)N[C@@H]1C(=O)N2C(C(=O)O)=C(/C=C3\CCN(Cc4cccc(O)c4)C3=O)CS[C@H]12 [Ex. 6, (E)-(6R,7R)-3-[1-(3-Hydroxy-benzyl)-2-oxo-pyrrolidin-3-ylidenemethyl]-8-oxo-7-[2-(2,4,5-trichloro-phenylsulfanyl)-acetylamino]-5-thia-1-aza-bicyclo[4.2.0]oct-2-ene-2-carboxylic acid] | – | – | – | – |
| 16 (≈ 26.6 µM) | 16 (≈ 26.6 µM) | 2 to 16 | 16 (≈ 26.6 µM) | 16 (≈ 26.6 µM) | O=C(CSc1ccc2ccccc2c1)N[C@@H]1C(=O)N2C(C(=O)O)=C(/C=C3\CCN(Cc4cccc(O)c4)C3=O)CS[C@H]12 [Ex. 7] | – | – | – | 2 to 16 |
| > 64 | > 64 | > 64 | – | – | CCN1CCN(C(=O)N[C@@H](C(=O)N[C@@H]2C(=O)N3C(C(=O)O)=C(CSc4nnnn4C)CS[C@H]23)c2ccc(O)cc2)C(=O)C1=O [Cefoperazone, reference compound] | – | – | – | – |
| > 16 | > 16 | – | > 16 | > 16 | O=C(C[n+]1ccc(CN2CC/C(=C\C3=C(C(=O)[O-])N4C(=O)[C@@H](NC(=O)CSc5cc(Cl)c(Cl)cc5Cl)[C@H]4SC3)C2=O)cc1)Nc1ccc(O)cc1 [Ex. 1, (E)-(6R,7R)-3-[1-[1-[(4-Hydroxy-phenylcarbamoyl)-methyl]-pyridin-1-ium-4-ylmethyl]-2-oxo-pyrrolidin-3-ylidenemethyl]-8-oxo-7-[2-(2,4,5-trichloro-phenylsulfanyl)-acetylamino]-5-thia-1-aza-bicyclo[4.2.0]oct-2-ene-2-carboxylate] | – | – | – | – |
| > 16 | > 16 | – | > 16 | > 16 | O=C(CSc1cc(Cl)c(Cl)cc1Cl)N[C@@H]1C(=O)N2C(C(=O)O)=C(/C=C3\CCN(C4CCNC4)C3=O)CS[C@H]12 (mixture of isomers) [Ex. 8, Mixture of (E)-(6R,7R)-8-oxo-3-[(R)- and-[(S)-2-oxo-[1,3']bipyrrolidinyl-3-ylidenemethyl]-8-oxo-7-[2-(2,4,5-trichloro-phenylsulfanyl)-acetylamino]-5-thia-1-aza-bicyclo[4.2.0]oct-2-ene-2-carboxylic acid hydrochloride] | – | – | – | – |
| > 16 | > 16 | – | > 16 | > 16 | O=C(C[n+]1ccc(CN2CC/C(=C\C3=C(C(=O)[O-])N4C(=O)[C@@H](NC(=O)CSc5nc6ccccc6s5)[C@H]4SC3)C2=O)cc1)Nc1ccc(O)cc1 [Ex. 2, (E)-(6R,7R)-3-[1-[1-[(4-Hydroxy-phenylcarbamoyl)-methyl]-pyridin-1-ium-4-ylmethyl]-2-oxo-pyrrolidin-3-ylidenemethyl]-8-oxo-7-[2-(1-benzothiazol-2-ylsulfanyl)-acetylamino]-5-thia-1-aza-bicyclo[4.2.0]oct-2-ene-2-carboxylate] | – | – | – | – |
| 16 | > 16 | – | 16 | > 16 | Cl.O=C(CSc1ccccc1)N[C@@H]1C(=O)N2C(C(=O)O)=C(/C=C3\CCN([C@@H]4CCNC4)C3=O)CS[C@H]12 [Ex. 11, (E)-(6R,7R)-8-Oxo-3-[(R)-2-oxo-[1,3']bipyrrolidinyl-3-ylidenemethyl]-7-(2-phenylsulfanyl-acetylamino)-5-thia-1-aza-bicyclo[4.2.0]oct-2-ene-2-carboxylic acid hydrochloride (1:1)] | – | – | – | – |
| 16 (≈ 22.7 µM) | 16 (≈ 22.7 µM) | – | 16 (≈ 22.7 µM) | 16 (≈ 22.7 µM) | O=C(C[n+]1ccc(CN2CC/C(=C\C3=C(C(=O)[O-])N4C(=O)[C@@H](NC(=O)CSc5ccccc5)[C@H]4SC3)C2=O)cc1)Nc1ccc(O)c(F)c1 [Ex. 9, (E)-(6R,7R)-3-[1-[1-[(3-Fluoro-4-hydroxy-phenylcarbamoyl)-methyl]-pyridin-1-ium-4-ylmethyl]-2-oxo-pyrrolidin-3-ylidenemethyl]-8-oxo-7-(2-phenylsulfanyl-acetylamino)-5-thia-1-aza-bicyclo[4.2.0]oct-2-ene-2-carboxylate] | – | – | – | – |
| > 16 | > 16 | – | > 16 | > 16 | O=C(C[n+]1ccc(CN2CC/C(=C\C3=C(C(=O)[O-])N4C(=O)[C@@H](NC(=O)CSc5ccc6ccccc6c5)[C@H]4SC3)C2=O)cc1)Nc1ccc(O)c(F)c1 [Ex. 5, (E)-(6R,7R)-3-[1-[1-[(3-Fluoro-4-hydroxy-phenylcarbamoyl)-methyl]-pyridin-1-ium-4-ylmethyl]-2-oxo-pyrrolidin-3-ylidenemethyl]-7-[2-(naphthalen-2-ylsulfanyl)-acetylamino]-8-oxo-5-thia-1-aza-bicyclo[4.2.0]oct-2-ene-2-carboxylat] | – | – | – | – |
| > 16 | > 16 | – | > 16 | > 16 | O=C(C[n+]1ccc(CN2CC/C(=C\C3=C(C(=O)[O-])N4C(=O)[C@@H](NC(=O)CSc5ccncc5)[C@H]4SC3)C2=O)cc1)Nc1ccc(O)cc1 [Ex. 4, (E)-(6R,7R)-3-[1-[1-[(4-Hydroxy-phenylcarbamoyl)-methyl]-pyridin-1-ium-4-ylmethyl]-2-oxo-pyrrolidin-3-ylidenemethyl]-8-oxo-7-[2-(pyridin-4-yl-sulfanyl)-acetylamino]-5-thia-1-aza-bicyclo[4.2.0]oct-2-ene-2-carboxylate] | – | – | – | – |
| 16 (≈ 26 µM) | > 16 | – | – | – | NS(=O)(=O)c1ccc(CN2CC/C(=C\C3=C(C(=O)O)N4C(=O)[C@@H](NC(=O)CSc5ccccc5)[C@H]4SC3)C2=O)cc1 [Ex. 14] | – | – | – | – |
| 16 (≈ 28.7 µM) | > 16 | – | – | – | O=C(CSc1nc2ccccc2s1)N[C@@H]1C(=O)N2C(C(=O)O)=C(/C=C3\CCN(CC4CC4)C3=O)CS[C@H]12 [Ex. 3, (E)-(6R,7R)-7-[2-(Benzothiazol-2-ylsulfanyl)-acetylamino]-3-(1-cyclopropyl-methyl-2-oxo-pyrrolidin-3-ylidenemethyl)-8-oxo-5-thia-1-aza-bicyclo[4.2.0]-oct-2-ene-2-carboxylic acid] | – | – | – | – |
| > 16 | > 16 | – | > 16 | > 16 | O=C(C[n+]1ccc(CN2CC/C(=C\C3=C(C(=O)[O-])N4C(=O)[C@@H](NC(=O)CSc5cc(Cl)ccc5Cl)[C@H]4SC3)C2=O)cc1)Nc1ccc(O)c(F)c1 [Ex. 10] | – | – | – | – |
| > 64 | > 64 | > 64 | – | – | CO/N=C(\C(=O)N[C@@H]1C(=O)N2C(C(=O)O)=C(CSc3nc(=O)c(=O)[nH]n3C)CS[C@H]12)c1csc(N)n1 [Ceftriaxone, reference compound] | – | – | – | – |
| > 64 | > 64 | > 64 | – | – | CO/N=C(\C(=O)N[C@@H]1C(=O)N2C(C(=O)O)=C(COC(C)=O)CS[C@H]12)c1csc(N)n1 [Cefotaxime, reference compound] | – | – | – | – |
| > 64 | > 64 | > 64 | – | – | Cc1cc(=O)c(C(=O)N[C@@H](C(=O)N[C@@H]2C(=O)N3C(C(=O)O)=C(CSc4nnnn4C)CS[C@H]23)c2ccc(O)cc2)c[nH]1 [Cefpiramid, reference compound] | – | – | – | – |
| 16 | > 16 | – | 16 | > 16 | O=C(CSc1ccc2ccccc2c1)N[C@@H]1C(=O)N2C(C(=O)O)=C(/C=C3\CCN(C4CC4)C3=O)CS[C@H]12.c1c[nH]cn1 [Ex. 12, (E)-(6R,7R)-3-(1-Cyclopropyl-2-oxo-pyrrolidin-3-ylidenemethyl)-7-[2-(naphthalen-2-ylsulfanyl)-acetylamino]-8-oxo-5-thia-1-aza-bicyclo[4.2.0]oct-2-ene-2-carboxylic acid imidazole salt (1:1)] | – | – | – | – |

| Structure (SMILES) | MIC50 ([1]; Table 1, substance alone) [µg/mL] | MIC90 ([1]; Table 1, substance alone) [µg/mL] | range of MIC ([1]; Table 1, substance alone) [µg/mL] | MIC50 ([1]; Table 2, substance alone) [µg/mL] | MIC90 ([1]; Table 2, substance alone) [µg/mL] | β-lactamase inhibition (β-lactamase) | activity against MRSA (MRSA) | spectrum of antibacterial activity [2] | range of MIC ([1]; Table 2, substance alone) [µg/mL] |
| --- | --- | --- | --- | --- | --- | --- | --- | --- | --- |
| C[C@@H](O)[C@H]1C(=O)N2C(C(=O)O)=C(SCCN=CN)C[C@H]12 [Imipenem] | > 16 | > 16 | – | – | – | good β-lactamase inhibitors | do not have good activity against MRSA | broad spectrum of antibacterial activity | – |
| C[C@@H](O)[C@H]1C(=O)N2C(C(=O)O)=C(S[C@@H]3CN[C@H](C(=O)N(C)C)C3)[C@H](C)[C@H]12 [Meropenem] | > 16 | > 16 | – | – | – | good β-lactamase inhibitors | do not have good activity against MRSA | broad spectrum of antibacterial activity | – |
| C[C@]1(/C=C\C#N)[C@H](C(=O)[O-])N2C(=O)C[C@H]2S1(=O)=O.[Na+] [compound B, sodium-(Z)-(2S,3S ,R)-3-(2-cyanoethenyl)-3-methyl-4,4,7-trioxo-4-thia-1-aza-bicyclo[3.2.0]heptane-2-carboxylate, reference compound] | – | – | – | > 16 | > 16 | – | – | – | > 16 |
| O=C(CSc1ccc2ccccc2c1)N[C@@H]1C(=O)N2C(C(=O)[O-])=C(/C=C3\CCN(c4ccc(O)cc4)C3=O)CS[C@H]12.[Na+] [Ex. 13, (E)-(6R,7R)-3-[1-(4-Hydroxy-phenyl)-2-oxo-pyrrolidin-3-ylidenemethyl]-7-[2-(naphthalene-2-ylsulfanyl)-acetylamino]-8-oxo-5-thia-1-aza-bicyclo[4.2.0]oct-2-ene-2-carboxylic acid sodium salt (1:1)] | 16 | > 16 | – | – | – | – | – | – | – |

From patent US6150350A, “Antimicrobial compositions” (Hoffman-la Roche Inc., priority 1997, dated 2000)
